Measurements taken from ChEMBL document CHEMBL1201862, “PubChem BioAssay data set” (2004).
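Following 48 hours of exposure in 96-well plates, responses at five concentrations were used to interpolate endpoints linearly. GI50 is the concentration that inhibits growth by half.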 The source made the active and inactive calls. Cut-off read from the data, not from the text of the source: active = GI50 up to about 1.1 µM and inactive = higher.

Columns and labels:
Experiment in all cases: NCI-60 cell line screen, 48 h
786-0 = test system: 786-0
HCT-116 = test system: HCT-116
HOP-62 = test system: HOP-62
HOP-92 = test system: HOP-92
KM12 = test system: KM12
LOX IMVI = test system: LOX IMVI
MDA-MB-231 = test system: MDA-MB-231
MDA-MB-435 = test system: MDA-MB-435
MOLT-4 = test system: MOLT-4
OVCAR-3 = test system: OVCAR-3
OVCAR-4 = test system: OVCAR-4
OVCAR-5 = test system: OVCAR-5
OVCAR-8 = test system: OVCAR-8
RXF 393 = test system: RXF 393
SF-539 = test system: SF-539
SNB-75 = test system: SNB-75
SR = test system: SR
T47D = test system: T47D
IGROV-1 = test system: IGROV-1
Malme-3M = test system: Malme-3M

Compound | GI50 (786-0) | GI50 (HCT-116) | GI50 (HOP-62) | GI50 (HOP-92) | GI50 (KM12) | GI50 (LOX IMVI) | GI50 (MDA-MB-231) | GI50 (MDA-MB-435) | GI50 (MOLT-4) | GI50 (OVCAR-3) | GI50 (OVCAR-4) | GI50 (OVCAR-5) | GI50 (OVCAR-8) | GI50 (RXF 393) | GI50 (SF-539) | GI50 (SNB-75) | GI50 (SR) | GI50 (T47D) | GI50 (IGROV-1) | GI50 (Malme-3M)
Cc1cc(C)n(C(=O)CSc2nnc(SCC(=O)n3nc(C)cc3C)s2)n1 | > 100 µM (inactive) | > 100 µM (inactive) | 80 µM (inactive) | > 100 µM (inactive) | > 100 µM (inactive) | > 100 µM (inactive) | > 100 µM (inactive) | > 100 µM (inactive) | > 100 µM (inactive) | 91.8 µM (inactive) | > 100 µM (inactive) | > 100 µM (inactive) | > 100 µM (inactive) | > 100 µM (inactive) | > 100 µM (inactive) | 40 µM (inactive) | > 100 µM (inactive) | > 100 µM (inactive) |  | 
COC(=O)C1=C(C(=O)OC)C2OC1C1C2C2(C)C(C)=C(C)C1(C)[S+]2[O-] (stereo not drawn) | 4.65 µM (inactive) | 6.08 µM (inactive) | 20.2 µM (inactive) | 15.8 µM (inactive) | 19 µM (inactive) | 16.6 µM (inactive) | 22.5 µM (inactive) | 6.73 µM (inactive) | 2.02 µM (inactive) | 9.02 µM (inactive) | 12.1 µM (inactive) | 15.5 µM (inactive) | 5.15 µM (inactive) | 3.37 µM (inactive) | 5.51 µM (inactive) | 19.5 µM (inactive) |  | 6.71 µM (inactive) | 16.7 µM (inactive) | 6.98 µM (inactive)
CC(=O)OCCCCn1cnc2nc(Nc3ccccc3)nc(Cl)c21 | > 100 µM (inactive) | 72.4 µM (inactive) | 62.7 µM (inactive) | 51.4 µM (inactive) | 91.4 µM (inactive) | 67.5 µM (inactive) | 35.2 µM (inactive) | 34.4 µM (inactive) | 66.5 µM (inactive) | 55.1 µM (inactive) | 65.3 µM (inactive) |  | > 100 µM (inactive) | 68.7 µM (inactive) | > 100 µM (inactive) | 50.7 µM (inactive) | > 100 µM (inactive) | 56.9 µM (inactive) | > 100 µM (inactive) | 83.4 µM (inactive)
C(/C=N/c1ccccc1)=C(/Nc1ccccc1)C12CC3CC(CC(C3)C1)C2 | 15 µM (inactive) | 13.2 µM (inactive) | 19.2 µM (inactive) | 25.2 µM (inactive) | 17 µM (inactive) | 12.9 µM (inactive) | 16.3 µM (inactive) | 15.2 µM (inactive) | 5.73 µM (inactive) | 6.85 µM (inactive) | 16.3 µM (inactive) | 15.2 µM (inactive) | 20.7 µM (inactive) | 17.1 µM (inactive) |  | 20.9 µM (inactive) | 11 µM (inactive) | 15.3 µM (inactive) | 17.6 µM (inactive) | 18.5 µM (inactive)
Nc1ccc(C2(c3ccc(N)cc3)C3CC4CC(C3)CC2C4)cc1 |  | 21.9 µM (inactive) | 13.6 µM (inactive) | 12.4 µM (inactive) | 0.0975 µM (active) | 16.2 µM (inactive) | 17.4 µM (inactive) | 14.7 µM (inactive) | 4.95 µM (inactive) | 10.9 µM (inactive) | 14.3 µM (inactive) | 15.8 µM (inactive) | 7.73 µM (inactive) | 2.74 µM (inactive) |  |  | 14.5 µM (inactive) | 14.5 µM (inactive) | 9.59 µM (inactive) | 
COc1ccc(/C=C/c2cnccn2)cc1OC | > 10 µM (inactive) | > 10 µM (inactive) | > 10 µM (inactive) | > 10 µM (inactive) | > 10 µM (inactive) | > 10 µM (inactive) | > 10 µM (inactive) | > 10 µM (inactive) |  | > 10 µM (inactive) | > 10 µM (inactive) | > 10 µM (inactive) | > 10 µM (inactive) | > 10 µM (inactive) | > 10 µM (inactive) | > 10 µM (inactive) |  | > 10 µM (inactive) | > 10 µM (inactive) | > 10 µM (inactive)
c1ccc2c(c1)SC1Sc3ccccc3[S+]21 (stereo not drawn) | 25.9 µM (inactive) | 22.7 µM (inactive) | 31.6 µM (inactive) | 10.4 µM (inactive) | 16.4 µM (inactive) | 18.5 µM (inactive) | 23.7 µM (inactive) | 18.8 µM (inactive) | 13.4 µM (inactive) | 19.5 µM (inactive) | 41.3 µM (inactive) | 27 µM (inactive) | 21.5 µM (inactive) | > 45.1 µM (inactive) | 23.2 µM (inactive) | 38.4 µM (inactive) |  | 12.5 µM (inactive) | 22 µM (inactive) | 2.98 µM (inactive)
